According to US8906909B2 (Curis, Inc., priority 2009, dated 2014):

How the values were obtained:
H1993 cells = assay: Cell proliferation assay Method A (ATPlite), H1993; assay type: cell-based; conditions: Homo sapiens, NCI-H1993, 72 hours, read-out: antiproliferative activity IC50, H1993
Method: (§1) Cancer cell lines were plated at 5,000 to 10,000 per well in 96-well flat bottomed plates with various concentration of compounds. The cells were incubated with compounds for 72 hours in the presence of 0.5% of fetal bovine serum. Growth inhibition was accessed by adenosine triphosphate (ATP) content assay using Perkin Elmer ATPlite kit. ATPlite is an ATP monitoring system based on firefly luciferase. Briefly, 25 μl of mammalian cell lysis solution was added to 50 μl of phenol red-free culture medium per well to lyse the cells and stabilize the ATP. 25 μl of substrate solution was then added to the well and subsequently the luminescence was measured.

Sk-Mel-28 cells = assay: Cell proliferation assay Method A (ATPlite), Sk-Mel-28; assay type: cell-based; conditions: Homo sapiens, 72 hours, read-out: antiproliferative activity IC50, Sk-Mel-28
Method: as §1

BT-474 cells = assay: Cell proliferation assay Method A (ATPlite), BT-474; assay type: cell-based; conditions: Homo sapiens, 72 hours, read-out: antiproliferative activity IC50, BT-474
Method: as §1

[1] = test system: HDACs (HeLa cell nuclear extracts); assay: HDAC enzymatic activity, Biomol Color de Lys system; assay type: biochemical
Method in brief: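 HeLa nuclear extract as HDAC source with Color de Lys substrate in 50 mM Tris/Cl pH 8.0, 137 mM NaCl, 2.7 mM KCl, 1 mM MgCl2. Serially diluted compounds reacted 1 h at 25 °C, then developer added; fluorescence (Ex 350–380/Em 440–460) fitted sigmoidally for IC50.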

HCT-118 cells = assay: Cell proliferation assay Method A (ATPlite), HCT-118; assay type: cell-based; conditions: 72 hours, read-out: antiproliferative activity IC50, HCT-118
Method: as §1

| IC50 (H1993 cells) | IC50 (BT-474 cells) | melting point | IC50 [1] | IC50 (HCT-118 cells) | SMILES | IC50 (Sk-Mel-28 cells) |
| --- | --- | --- | --- | --- | --- | --- |
| 100 to 1000 nM | < 100 nM | 234 to 237 °C | < 100 nM | 100 to 1000 nM | O=C(NO)c1cnc(NCc2cc3nc(-c4cccc5[nH]ncc45)nc(N4CCOCC4)c3s2)nc1 [Compound 53, 2-((2-(1H-indazol-4-yl)-4-morpholinothieno[3,2-d]pyrimidin-6-yl)methylamino)-N-hydroxypyrimidine-5-carboxamide] | 100 to 1000 nM |
| < 100 nM | < 100 nM | 215 to 217 °C | < 100 nM | < 100 nM | CN(Cc1cc2nc(-c3cc(F)cc4[nH]ncc34)nc(N3CCOCC3)c2s1)c1ncc(C(=O)NO)cn1 [Compound 69, 2-(((2-(6-fluoro-1H-indazol-4-yl)-4-morpholinothieno[3,2-d]pyrimidin-6-yl)methyl)(methyl)amino)-N-hydroxypyrimidine-5-carboxamide] | < 100 nM |
| 100 to 1000 nM | 100 to 1000 nM |  | 100 to 1000 nM | 100 to 1000 nM | CN(Cc1cc2nc(-c3cccc4[nH]ncc34)nc(N3CCOCC3)c2s1)c1ncc(/C=C/C(=O)NO)cn1 [Compound 75] | 100 to 1000 nM |
| 100 to 1000 nM | 100 to 1000 nM | 218 to 220 °C | < 100 nM | 100 to 1000 nM | O=C(NO)c1ccc(NCc2cc3nc(-c4cccc5[nH]ncc45)nc(N4CCOCC4)c3s2)nc1 [Compound 76, 6-((2-(1H-indazol-4-yl)-4-morpholinothieno[3,2-d]pyrimidin-6-yl)methylamino)-N-hydroxynicotinamide] | 100 to 1000 nM |
|  | 100 to 1000 nM | 190 to 194 °C | < 100 nM | 100 to 1000 nM | O=C(NO)c1cnc(N(CCO)Cc2cc3nc(-c4cccc5[nH]ncc45)nc(N4CCOCC4)c3s2)nc1 [Compound 86, 2-(((2-(1H-indazol-4-yl)-4-morpholinothieno[3,2-d]pyrimidin-6-yl)methyl)(2-hydroxyethyl)amino)-N-hydroxypyrimidine-5-carboxamide] | 1000 to 10000 nM |
| 1000 to 10000 nM | 1000 to 10000 nM |  | < 100 nM | 100 to 1000 nM | CC(=O)OCCN(Cc1cc2nc(-c3cccc4[nH]ncc34)nc(N3CCOCC3)c2s1)c1ncc(C(=O)NO)cn1 [Compound 87] | 100 to 1000 nM |
| 1000 to 10000 nM | 100 to 1000 nM |  |  | < 100 nM | COCCN(Cc1cc2nc(-c3cccc4[nH]ncc34)nc(N3CCOCC3)c2s1)c1ncc(C(=O)NO)cn1 [Compound 90, 2-(((2-(1H-indazol-4-yl)-4-morpholinothieno[3,2-d]pyrimidin-6-yl)methyl)(2-methoxyethyl)amino)-N-hydroxypyrimidine-5-carboxamide] |  |
| > 10000 nM | 1000 to 10000 nM |  | < 100 nM | 1000 to 10000 nM | O=C(NO)c1cnc(N(CCCO)Cc2cc3nc(-c4cccc5[nH]ncc45)nc(N4CCOCC4)c3s2)nc1 [Compound 91] |  |
|  | < 100 nM |  | < 100 nM | < 100 nM | CCN(Cc1cc2nc(-c3cccc4[nH]ncc34)nc(N3CCOCC3)c2s1)c1ncc(C(=O)NO)cn1 [Compound 92] | 100 to 1000 nM |
| > 10000 nM | 100 to 1000 nM |  | < 100 nM | > 10000 nM | N#CCCN(Cc1cc2nc(-c3cccc4[nH]ncc34)nc(N3CCOCC3)c2s1)c1ncc(C(=O)NO)cn1 [Compound 99] | 100 to 1000 nM |
| < 100 nM | < 100 nM | 160 to 164 °C | < 100 nM | < 100 nM | CN(Cc1cc2nc(-c3cccnc3)nc(N3CCOCC3)c2s1)c1ncc(C(=O)NO)cn1 [Compound 109, N-hydroxy-2-(methyl((4-morpholino-2-(pyridin-3-yl)thieno[3,2-d]pyrimidin-6-yl)methyl)amino)pyrimidine-5-carboxamide] |  |
| < 100 nM | < 100 nM | 200 to 206 °C | < 100 nM | < 100 nM | CN(C)c1ncc(-c2nc(N3CCOCC3)c3sc(CN(C)c4ncc(C(=O)NO)cn4)cc3n2)cn1 [Compound 117, 2-(((2-(2-(dimethylamino)pyrimidin-5-yl)-4-morpholinothieno[3,2-d]pyrimidin-6-yl)methyl)(methyl)amino)-N-hydroxypyrimidine-5-carboxamide] | < 100 nM |
|  |  | 190 to 193 °C | < 100 nM |  | CN(Cc1cc2nc(-c3cc(F)c(N)c(F)c3)nc(N3CCOCC3)c2s1)c1ncc(C(=O)NO)cn1 [Compound 282, 2-(((2-(4-Amino-3,5-difluorophenyl)-4-morpholinothieno[3,2-d]pyrimidin-6-yl)methyl)(methyl)amino)-N-hydroxypyrimidine-5-carboxamide] |  |
|  |  | 195 to 200 °C | < 100 nM |  | CN(Cc1cc2nc(-c3ccc(N)c(CO)c3)nc(N3CCOCC3)c2s1)c1ncc(C(=O)NO)cn1 [Compound 285, 2-(((2-(4-Amino-3-(hydroxymethyl)phenyl)-4-morpholinothieno[3,2-d]pyrimidin-6-yl)methyl)(methyl)amino)-N-hydroxypyrimidine-5-carboxamide] |  |
|  |  | 188 to 192 °C | < 100 nM |  | CN(Cc1cc2nc(-c3cccc(SCCO)c3)nc(N3CCOCC3)c2s1)c1ncc(C(=O)NO)cn1 [Compound 290, N-Hydroxy-2-(((2-(3-(2-hydroxyethylthio)phenyl)-4-morpholinothieno[3,2-d]pyrimidin-6-yl)methyl)(methyl)amino)pyrimidine-5-carboxamide] |  |
|  |  | 230 to 235 °C | < 100 nM |  | CC(O)c1ccc(F)c(-c2nc(N3CCOCC3)c3sc(CN(C)c4ncc(C(=O)NO)cn4)cc3n2)c1 (stereo not shown) [Compound 295, 2-(((2-(2-Fluoro-5-(1-hydroxyethyl)phenyl)-4-morpholinothieno[3,2-d]pyrimidin-6-yl)methyl)(methyl)amino)-N-hydroxypyrimidine-5-carboxamide] |  |
|  |  | 169 to 173 °C | < 100 nM |  | C[C@@H](O)c1cccc(-c2nc(N3CCOCC3)c3sc(CN(C)c4ncc(C(=O)NO)cn4)cc3n2)c1 [Compound 297, (R)—N-Hydroxy-2-(((2-(3-(1-hydroxyethyl)phenyl)-4-morpholinothieno[3,2-d]pyrimidin-6-yl)methyl)(methyl)amino)pyrimidine-5-carboxamide] |  |
|  |  | 232 to 238 °C | < 100 nM |  | Nc1ccc(-c2nc(N3CCOCC3)c3sc(C(=O)NCC4CCN(c5ncc(C(=O)NO)cn5)CC4)cc3n2)cc1 [Compound 307, 2-(4-Aminophenyl)-N-((1-(5-(hydroxycarbamoyl)pyrimidin-2-yl)piperidin-4-yl)methyl)-4-morpholinothieno[3,2-d]pyrimidine-6-carboxamide] |  |
|  |  | 190 to 197 °C | < 100 nM |  | CNc1ccc(-c2nc(N3CCOCC3)c3sc(S(=O)(=O)NCC4CCN(c5ncc(C(=O)NO)cn5)CC4)cc3n2)cn1 [Compound 310, N-Hydroxy-2-(4-((2-(6-(methylamino)pyridin-3-yl)-4-morpholinothieno[3,2-d]pyrimidine-6-sulfonamido)methyl)piperidin-1-yl)pyrimidine-5-carboxamide] |  |
|  |  | > 300 °C | < 100 nM |  | CN(Cc1cc2nc(-c3ccc4[nH]c(C(F)(F)F)nc4c3)nc(N3CCOCC3)c2s1)c1ncc(C(=O)NO)cn1 [Compound 318] |  |
|  |  | 140 to 144 °C | 100 to 1000 nM |  | CS(=O)(=O)N1CCN(Cc2cc3nc(-c4ccc(OCCCCC(=O)NO)cc4)nc(N4CCOCC4)c3s2)CC1 [Compound 319, N-Hydroxy-5-(4-(6-((4-(methylsulfonyl)piperazin-1-yl)methyl)-4-morpholinothieno[3,2-d]pyrimidin-2-yl)phenoxy)pentanamide] |  |
|  |  | 140 to 142 °C | 100 to 1000 nM |  | CS(=O)(=O)N1CCN(Cc2cc3nc(-c4ccc(OCCCCCC(=O)NO)cc4)nc(N4CCOCC4)c3s2)CC1 [Compound 320, N-Hydroxy-6-(4-(6-((4-(methylsulfonyl)piperazin-1-yl)methyl)-4-morpholinothieno[3,2-d]pyrimidin-2-yl)phenoxy)hexanamide] |  |
|  |  | 143 to 145 °C | 100 to 1000 nM |  | CS(=O)(=O)N1CCN(Cc2cc3nc(-c4ccc(OCCCCCCC(=O)NO)cc4)nc(N4CCOCC4)c3s2)CC1 [Compound 321, N-Hydroxy-7-(4-(6-((4-(methylsulfonyl)piperazin-1-yl)methyl)-4-morpholinothieno[3,2-d]pyrimidin-2-yl)phenoxy)heptanamide] |  |
